Laboratory results from patent US9617602B2, “Methods and compositions for determining resistance to androgen receptor therapy” (Aragon Pharmaceuticals, Inc., priority 2012, dated 2017).

Test system: LNCaP/AR(cs) cells
Assay: Endogenous gene transcriptional assay (real-time PCR of androgen responsive genes);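 on ORM1 expression, agonist transcription: LNCaP/AR(cs) cells without added R1881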;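 on PLD1 expression, agonist transcription: LNCaP/AR(cs) cells without added R1881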;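 on PSA expression, agonist transcription: LNCaP/AR(cs) cells without added R1881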;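 on SLUG expression, agonist transcription: LNCaP/AR(cs) cells without added R1881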;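 on TMPRSS2 expression, agonist transcription: LNCaP/AR(cs) cells without added R1881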
Assay type: cell-based, human
[1] = Table 4A, 1 nM R1881 or 30 μM compound, vehicle=1.00

Structure (SMILES): CNC(=O)c1ccc(N2C(=S)N(c3ccc(C#N)c(C(F)(F)F)c3)C(=O)C2(C)C)cc1F [Enzalutamide, enzalutamide]
- FKBP5 gene expression [1]: 1.71
- HPGD gene expression [1]: 2.01
- NKX3.1 gene expression [1]: 2.51
- ORM1 gene expression [1]: 3.58
- PLD1 gene expression [1]: 0.65
- PSA gene expression [1]: 2.69
- SLUG gene expression [1]: 2.06
- TMPRSS2 gene expression [1]: 2.36
- AMIGO2 expression, agonist transcription (−R1881, 0.3 μM): 0.68
- CAM2KN1 expression, agonist transcription (−R1881, 0.3 μM): 0.80
- FASN expression, agonist transcription (−R1881, 0.3 μM): 0.47
- FKBP5 expression, agonist transcription (−R1881, 0.3 μM): 0.91
- HPGD expression, agonist transcription (−R1881, 0.3 μM): 0.74
- NCAPD3 expression, agonist transcription (−R1881, 0.3 μM): 0.66
- NKX3.1 expression, agonist transcription (−R1881, 0.3 μM): 0.71
- NOV expression, agonist transcription (−R1881, 0.3 μM): 1.12
- ORM1 expression, agonist transcription (−R1881, 0.3 μM): 0.92
- PLD1 expression, agonist transcription (−R1881, 0.3 μM): 0.77
- PSA expression, agonist transcription (−R1881, 0.3 μM): 0.42
- SLUG expression, agonist transcription (−R1881, 0.3 μM): 0.53
- STEAP4 expression, agonist transcription (−R1881, 0.3 μM): 0.75
- TMPRSS2 expression, agonist transcription (−R1881, 0.3 μM): 0.75
- AMIGO2 expression, agonist transcription (−R1881, 1 μM): 0.61
- BDNF expression, agonist transcription (−R1881, 1 μM): 0.92
- CAM2KN1 expression, agonist transcription (−R1881, 1 μM): 0.70
- FASN expression, agonist transcription (−R1881, 1 μM): 0.32
- FKBP5 expression, agonist transcription (−R1881, 1 μM): 0.62
- HPGD expression, agonist transcription (−R1881, 1 μM): 0.57
- NCAPD3 expression, agonist transcription (−R1881, 1 μM): 0.57
- NKX3.1 expression, agonist transcription (−R1881, 1 μM): 0.52
- NOV expression, agonist transcription (−R1881, 1 μM): 0.91
- ORM1 expression, agonist transcription (−R1881, 1 μM): 0.90
- PLD1 expression, agonist transcription (−R1881, 1 μM): 0.62
- PSA expression, agonist transcription (−R1881, 1 μM): 0.32
- SLUG expression, agonist transcription (−R1881, 1 μM): 0.55
- STEAP4 expression, agonist transcription (−R1881, 1 μM): 0.73
- TMPRSS2 expression, agonist transcription (−R1881, 1 μM): 0.53
- AMIGO2 expression, agonist transcription (−R1881, 3 μM): 0.62
- BDNF expression, agonist transcription (−R1881, 3 μM): 0.88
- CAM2KN1 expression, agonist transcription (−R1881, 3 μM): 0.71
- FASN expression, agonist transcription (−R1881, 3 μM): 0.29
- FKBP5 expression, agonist transcription (−R1881, 3 μM): 0.75
- HPGD expression, agonist transcription (−R1881, 3 μM): 0.61
- NCAPD3 expression, agonist transcription (−R1881, 3 μM): 0.47
- NKX3.1 expression, agonist transcription (−R1881, 3 μM): 0.51
- NOV expression, agonist transcription (−R1881, 3 μM): 0.80
- ORM1 expression, agonist transcription (−R1881, 3 μM): 1.06
- PLD1 expression, agonist transcription (−R1881, 3 μM): 0.63
- PSA expression, agonist transcription (−R1881, 3 μM): 0.38
- SLUG expression, agonist transcription (−R1881, 3 μM): 0.31
- STEAP4 expression, agonist transcription (−R1881, 3 μM): 0.52
- TMPRSS2 expression, agonist transcription (−R1881, 3 μM): 0.63
- AMIGO2 expression, agonist transcription (−R1881, 10 μM): 0.66
- BDNF expression, agonist transcription (−R1881, 10 μM): 0.95
- CAM2KN1 expression, agonist transcription (−R1881, 10 μM): 0.64
- FASN expression, agonist transcription (−R1881, 10 μM): 0.31
- FKBP5 expression, agonist transcription (−R1881, 10 μM): 0.61
- HPGD expression, agonist transcription (−R1881, 10 μM): 0.63
- NCAPD3 expression, agonist transcription (−R1881, 10 μM): 0.56
- NKX3.1 expression, agonist transcription (−R1881, 10 μM): 0.86
- ORM1 expression, agonist transcription (−R1881, 10 μM): 0.71
- PLD1 expression, agonist transcription (−R1881, 10 μM): 0.56
- PSA expression, agonist transcription (−R1881, 10 μM): 0.74
- SLUG expression, agonist transcription (−R1881, 10 μM): 0.51
- STEAP4 expression, agonist transcription (−R1881, 10 μM): 1.16
- TMPRSS2 expression, agonist transcription (−R1881, 10 μM): 0.89
- CAM2KN1 expression, agonist transcription (−R1881, 30 μM): 0.64
- FKBP5 expression, agonist transcription (−R1881, 30 μM): 0.85
- NCAPD3 expression, agonist transcription (−R1881, 30 μM): 0.79
- NKX3.1 expression, agonist transcription (−R1881, 30 μM): 1.63
- ORM1 expression, agonist transcription (−R1881, 30 μM): 2.02
- PLD1 expression, agonist transcription (−R1881, 30 μM): 0.56
- PSA expression, agonist transcription (−R1881, 30 μM): 1.60
- SLUG expression, agonist transcription (−R1881, 30 μM): 0.91
- TMPRSS2 expression, agonist transcription (−R1881, 30 μM): 1.45
